Reference: patent publication US20250296938A1, “Compounds that Interact with the Ras Superfamily for the Treatment of Cancers, Inflammatory Diseases, Rasopathies, and Fibrotic Disease” (SHY Therapeutics, LLC, priority 2018, published 2025)
Like-named read-outs stand apart in the source and are kept apart here. Values belong to the molecule of their own block, whether it stands above or below them.

Legend:
[1] = system: MIA PaCa-2 pancreatic cancer cell line; experiment: Cell proliferation assay (DAPI); assay type: cell-based; settings: Homo sapiens; for inhibition at 10 µM: read-out: % Inhibition of cell proliferation, MIA PaCa-2 % inh
Procedure: Cell lines: Human NSCLC cells NCI-H1975 and NCI-H1299, and tumor-derived pancreatic cancer cell lines Panc-1, MIA-PACA2, and BxPC3, were all purchased from American Type Culture Collection and grown in complete RPMI medium (BxPC3, NCI-H1975 and NCI-H1299) or DMEM-High Glucose (Panc1 and MIA-PaCa-2), supplemented with penicillin (100 U/mL), streptomycin (100 μg/mL), and 10% heat-inactivated FBS at 37° C. in a humidified incubator with 5% CO2.
Method: Cells were plated at 2000 to 5000 cells/well density in 96-wells plate and cultured ON. Small molecules to be tested were added to the cells in the final concentration of 10 µM in the presence of 0.3% DMSO and 10% FBS, and incubated for 2-4 days at 37° C. in a humidified incubator with 5% CO2. For IC50 value determination, serial dilutions of compounds were added to cells under the same conditions.
Assay: At the end of the incubation period, cell cultures were fixed with a 50-50 mixture (v/v) acetone-methanol for 10 minutes at −20° C., followed by rehydration in PBS for 10 minutes at room temperature. DNA total content was determined by staining cells with DAPI (1 ug/ml) in PBS for 10 minutes at room temperature, followed by 3 washes with PBS. After staining, DAPI fluorescence was recorded (358 nm excitation/461 nm emission) with the 96-well plate reader Molecular Devices Spectramax M3; degree of small molecule-dependent proliferation inhibition was calculated from raw data.

Rac-1 = Rac-1 (Homo sapiens, UniProt P63000); experiment: Ras GTP binding domain inhibition assay (Cy3-GTP/Cy5-GTP competition)
How it was run: (§1)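 First, His-tagged protein is coated on nickel wells overnight at 4 °C. Next, compound (20 μM single point or serial dilution) is added for 3 h at room temperature, with or without Sos exchange factor in the last hour. Finally, 100 nM labelled GTP binds for 45 min and retained signal is measured.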

Rho-A = Rho-A (Homo sapiens, UniProt P61586); experiment: as above
How it was run: as §1

KRas G12D mutant = target: T1, KRas G12D mutant (Homo sapiens, UniProt P01116, G12D); experiment: as above; settings: at 20 μM
T1 construct: fused on or other part: His tag, used for capture on nickel-coated plates
How it was run: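 Ni-plate immobilised His-Ras, overnight 4 °C; cpd 20 μM (or dilution series for IC50), 1% DMSO, 3 h RT; optional His-Sos […] last hour; Cy3- or Cy5-GTP 100 nM, 45 min RT; 3× wash; bound fluorescence read.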

[2] = with SOS, read-out: Rac-1 + SOS: % inh.
[3] = without SOS, read-out: Rac-1: % inh.
[4] = with SOS, read-out: Rho-A + SOS: % inh.
[5] = without SOS, read-out: Rho-A: % inh.
[6] = with SOS, read-out: KRas G12D mutant + SOS: % inh.
[7] = without SOS, read-out: KRas G12D mutant: % inh.

Structure (SMILES): COCCNc1nc(-c2cn(C)cn2)nc2sc(-c3cccc(OC)c3Cl)c(-c3ccc(OC)cc3)c12 [drawing 565]
inhibition at 10 µM ([1]; 2-4 days, MIA PaCa-2): 76 to 100%

IC50 ([1]; MIA PaCa-2 (Table 5A)): 0.5 to 0.749 µM
Structure (SMILES): CO[C@H]1CC[C@@H](Nc2nc(-c3nccn3C)nc3sc(-c4ccn(C(C)C)n4)c(C)c23)C1 [drawing 654]
inhibition at 10 µM ([1]; MIA PaCa-2 (Table 5A)): 76 to 100%

IC50 ([1]; MIA PaCa-2 (Table 5A)): > 1 µM
Structure (SMILES): COCCNC(=O)c1sc2nc(-c3nccn3C)nc(N[C@@H]3CC[C@H](OC)C3)c2c1-c1ccccc1 [drawing 660]
inhibition at 10 µM ([1]; MIA PaCa-2 (Table 5A)): 76 to 100%

IC50 ([1]; MIA PaCa-2 (Table 5A)): 0.75 to 1 µM
Structure (SMILES): CO[C@H]1C[C@@H](Nc2nc(-c3ncc[nH]3)nc3sc(-c4ccn(C)n4)c(-c4ccccc4)c23)C1 [drawing 645]
inhibition at 10 µM ([1]; MIA PaCa-2 (Table 5A)): 76 to 100%

Structure (SMILES): COC1CCN(c2nc(-c3nccn3C)nc3sc(Br)c(-c4ccccc4)c23)C1 (centres unmarked) [drawing 583]
inhibition at 10 µM ([1]; 2-4 days, MIA PaCa-2): 76 to 100%

IC50 ([1]; MIA PaCa-2 (Table 5A)): > 1 µM
Structure (SMILES): CCOc1cccc(Nc2nc(-c3ccccn3)nc(O)c2OC)c1 [drawing 617]
inhibition at 10 µM ([1]; MIA PaCa-2 (Table 5A)): 76 to 100%

IC50 ([1]; MIA PaCa-2 (Table 5A)): 0.5 to 0.749 µM
Structure (SMILES): COc1cccc(-c2sc3nc(-c4nccn4C)nc(N[C@H]4C[C@@H](OC)C4)c3c2-c2ccccc2)c1F [drawing 626]
inhibition at 10 µM ([1]; MIA PaCa-2 (Table 5A)): 76 to 100%

Structure (SMILES): O=C(c1nc(-c2ccccn2)nc(O)c1O)N1CCc2ccccc2C1 [drawing 594]
inhibition at 10 µM ([1]; 2-4 days, MIA PaCa-2): 1 to 25%

Structure (SMILES): COC1CCN(c2nc(-c3nccn3C)nc3sc(-c4ccncc4C)c(-c4ccccc4)c23)C1 (centres unmarked) [drawing 576]
inhibition at 10 µM ([1]; 2-4 days, MIA PaCa-2): 76 to 100%

Structure (SMILES): COc1cccc(-c2sc3nc(-c4nccn4C)nc(N4CCC(OC)C4)c3c2-c2ccccc2)c1F (centres unmarked) [drawing 586]
inhibition at 10 µM ([1]; 2-4 days, MIA PaCa-2): 76 to 100%

Structure (SMILES): COCCn1cc(Nc2nc(-c3ccccn3)nc(OC)c2OC)cn1 [drawing 612]
inhibition at 10 µM ([1]; 2-4 days, MIA PaCa-2): 26 to 50%

Structure (SMILES): COc1ccc(-c2sc3nc(-c4nccn4C)nc(N4CCC(OC)C4)c3c2-c2ccccc2)cn1 (centres unmarked) [drawing 572]
inhibition at 10 µM ([1]; 2-4 days, MIA PaCa-2): 76 to 100%

IC50 ([1]; MIA PaCa-2 (Table 5A)): > 1 µM
Structure (SMILES): COC1CCC(Nc2nc(-c3nccn3C)nc3sc(-c4cccc(O)c4F)c(-c4ccccc4)c23)C1 (centres unmarked) [drawing 620]
inhibition at 10 µM ([1]; MIA PaCa-2 (Table 5A)): 76 to 100%

Structure (SMILES): CC(C)NC(=O)c1nc(-c2nccn2C)nc(O)c1O [drawing 604]
inhibition at 10 µM ([1]; 2-4 days, MIA PaCa-2): 26 to 50%

IC50 ([1]; MIA PaCa-2 (Table 5A)): 0.75 to 1 µM
Structure (SMILES): COc1cccc(-c2sc3nc(-c4nccn4C)nc(NC4CCC(OC)C4)c3c2C)c1F (centres unmarked) [drawing 628]
inhibition at 10 µM ([1]; MIA PaCa-2 (Table 5A)): 76 to 100%

IC50 ([1]; MIA PaCa-2 (Table 5A)): > 1 µM
Structure (SMILES): COc1c(O)nc(-c2ccccn2)nc1Nc1ccccc1 [drawing 615]
inhibition at 10 µM ([1]; MIA PaCa-2 (Table 5A)): 76 to 100%

IC50 ([1]; MIA PaCa-2 (Table 5A)): > 1 µM
Structure (SMILES): CO[C@H]1C[C@@H](Nc2nc(-c3nccn3C)nc3sc(C(=O)N4CCOCC4)c(-c4ccccc4)c23)C1 [drawing 657]
inhibition at 10 µM ([1]; MIA PaCa-2 (Table 5A)): 26 to 50%

inhibition at 20 µM (Rac-1; [2]): 76 to 100% | inhibition at 20 µM (Rac-1; [3]): 76 to 100% | inhibition at 20 µM (Rho-A; [4]): 76 to 100% | inhibition at 20 µM (Rho-A; [5]): 76 to 100% | inhibition at 20 µM (KRas G12D mutant; [6]): 76 to 100% | inhibition at 20 µM (KRas G12D mutant; [7]): 76 to 100%
Structure (SMILES): CO[C@H]1CC[C@@H](Nc2nc(-c3nccn3C)nc3sc(C(=O)NC(C)C)c(-c4ccccc4)c23)C1 [drawing 1059]

inhibition at 20 µM (Rac-1; [2]): 76 to 100% | inhibition at 20 µM (Rac-1; [3]): 76 to 100% | inhibition at 20 µM (Rho-A; [4]): 76 to 100% | inhibition at 20 µM (Rho-A; [5]): 76 to 100% | inhibition at 20 µM (KRas G12D mutant; [6]): 51 to 75% | inhibition at 20 µM (KRas G12D mutant; [7]): 76 to 100%
Structure (SMILES): CO[C@H]1CC[C@@H](Nc2nc(-c3nccn3C)nc3sc(C(=O)N4CCOCC4)c(-c4ccccc4)c23)C1 [drawing 1062]

inhibition at 20 µM (Rac-1; [2]): 0% | inhibition at 20 µM (Rac-1; [3]): 0% | inhibition at 20 µM (Rho-A; [4]): 1 to 25% | inhibition at 20 µM (Rho-A; [5]): 1 to 25% | inhibition at 20 µM (KRas G12D mutant; [6]): 1 to 25% | inhibition at 20 µM (KRas G12D mutant; [7]): 0%
Structure (SMILES): COCC(C)Nc1nc(-c2nccn2C)nc2sc(-c3ccn(C)n3)c(-c3ccc(OC)cc3)c12 (centres unmarked) [drawing 1004]

inhibition at 20 µM (Rac-1; [2]): 51 to 75% | inhibition at 20 µM (Rac-1; [3]): 51 to 75% | inhibition at 20 µM (Rho-A; [4]): 76 to 100% | inhibition at 20 µM (Rho-A; [5]): 76 to 100% | inhibition at 20 µM (KRas G12D mutant; [6]): 26 to 50% | inhibition at 20 µM (KRas G12D mutant; [7]): 76 to 100%
Structure (SMILES): Cc1cn(C)c(-c2nc(O)c3scc(-c4ccccn4)c3n2)n1 [drawing 942]

inhibition at 20 µM (Rac-1; [2]): 76 to 100% | inhibition at 20 µM (Rac-1; [3]): 76 to 100% | inhibition at 20 µM (Rho-A; [4]): 51 to 75% | inhibition at 20 µM (Rho-A; [5]): 51 to 75% | inhibition at 20 µM (KRas G12D mutant; [6]): 51 to 75% | inhibition at 20 µM (KRas G12D mutant; [7]): 51 to 75%
Structure (SMILES): CO[C@H]1C[C@@H](Nc2nc(-c3nccn3C)nc3sc(C(=O)NC(C)C)c(-c4ccccc4)c23)C1 [drawing 1055]
